# From patent EP2386300A1, “Use of dronedarone for the preparation of a medicament for use in the prevention of cardiovascular hospitalization or of mortality in patients having a first recurrence of atrial fibrillation or atrial flutter” (SANOFI, priority 2010, dated 2011)
# Where a name gives a salt, the structure may show the parent alone.
# Tested on: patients having a history of atrial fibrillation or atrial flutter
# Test: Prospective, multinational, multicentre, double-blind, placebo-controlled clinical study (ATHENA); analysis restarting the clock at first AF/AFL recurrence
# Assay type: in vivo
# Experimental: More particularly, the effects of dronedarone compared with placebo on cardiovascular (CV) end points were evaluated by restarting the clock at the time of first atrial fibrillation or atrial flutter recurrence detected in a scheduled ECG or requiring cardioversion.
# The patients had to have a history of atrial fibrillation or flutter and/or could be in normal sinus rhythm or in atrial fibrillation or flutter at inclusion.
# The patient recruitment was carried out by taking into account the following inclusion criteria:
# • 1) One of the following risk factors had to be present: • age equal to or greater than 70 years, • hypertension (taking antihypertensives of at least two different classes), • diabetes, • history of cerebral stroke (transient ischemic event or completed cerebral stroke) or of systemic embolism, • left atrial diameter greater than or equal to 50 mm measured by echocardiography, • left ventricular ejection fraction less than 40%, measured by two-dimensional echography; or • age equal to or above 70, or even above 75, possibly combined with at least one of the risk factors below: • o hypertension (taking antihypertensives of at least two different classes), • o diabetes, • o history of cerebral stroke (transient ischemic event or completed cerebral stroke) or of systemic embolism, • o left atrial diameter greater than or equal to 50 mm measured by echocardiography, • o left ventricular ejection fraction less than 40%, measured by two-dimensional echography; • 2) availability of an electrocardiogram carried out during the past 6 months in order to document the presence or the history of atrial fibrillation or flutter; • 3) availability of an electrocardiogram carried out during the past 6 months in order to document the presence or absence of normal sinus rhythm.
# • Patients in permanent atrial fibrillation • Patients in unstable hemodynamic condition such as acute pulmonary edema within 12 hours prior to start of study medication; cardiogenic shock; treatment with IV pressor agents; patients on respirator; congestive heart failure of stage NYHA IV within the last 4 weeks; uncorrected, hemodynamically significant primary obstructive valvular disease; hemodynamically significant obstructive cardomyopathy; a cardiac operation or revascularization procedure within 4 weeks preceding randomization • Planned major non-cardiac or cardiac surgery or procedures including surgery for valvular heart disease, coronary artery bypass graft (CABG), percutaneous coronary intervention (PCI), or on urgent cardiac transplantation list • Acute myocarditis or constrictive pericarditis • Bradycardia < 50 bpm and/or PR-interval ≥ 0.28 sec on the last 12-lead ECG. • Significant sinus node disease (documented pause of 3 seconds or more) or 2nd or 3rd degree atrioventricular block (AV-block) unless treated with a pacemaker.
# • Plasma potassium < 3.5 mmol/I (as anti-arrhythmic drugs can be arrhythmogenic in patients with hypokalemia, this must be corrected prior to randomization. • A calculated GFR at baseline < 10 ml/min using the Cockroft Gault formula (GFR [ml/min] = (140 - AGE [years] * WEIGHT [kilograms] * CONSTANT / CREATININE [µmol/L], where CONSTANT is 1 for men and 0.85 for women )^i
# Treatment was initiated using tablets containing either the placebo or an amount of dronedarone hydrochloride corresponding to 400 mg of dronedarone at a rate of twice a day with the morning and evening meal and more specifically at a rate of one tablet in the morning during or shortly after breakfast and one tablet in the evening during or shortly after dinner.
# The anticipated duration of the treatment was variable according to the time at which each patient was included in the study, and could range from a minimum of 12 months for the last patient included up to a maximum corresponding to the entire duration of the study (12 months + duration of inclusion), i.e. approximately 30 months for the first patients included.
# [1] = 1 - relative risk, versus placebo, after first AF/AFL recurrence
SMILES,reduction in cardiovascular hospitalizations [1] [%],reduction in cardiovascular hospitalizations or deaths [1] [%],reduction in cardiovascular mortality [1] [%],reduction of death [1] [%],"cardiovascular deaths (673 treated patients with a first AF/AFL recurrence, placebo 35) [cardiovascular deaths]","deaths (mortality from any cause) (673 treated patients with a first AF/AFL recurrence, placebo 51 deaths) [deaths]","events, cardiovascular hospitalizations (673 treated patients with a first AF/AFL recurrence, placebo 288 events) [events]","events, cardiovascular hospitalizations or mortality (principal judgement criterion) (673 treated patients with a first AF/AFL recurrence, placebo 306 events) [events]","relative risk, cardiovascular hospitalizations or deaths (versus placebo, Cox model, after first AF/AFL recurrence, p = 0.0025)","relative risk, cardiovascular hospitalizations (versus placebo, Cox model, after first AF/AFL recurrence, p = 0.0048)","relative risk, death from any cause (versus placebo, Cox model, after first AF/AFL recurrence, p = 0.018)","relative risk, cardiovascular mortality (versus placebo, Cox model, after first AF/AFL recurrence, p = 0.0342)","primary composite end point occurred in patients (after a first AF recurrence, CV hospitalization or all-cause mortality, placebo 306) [patients]","primary composite end point occurred in patients (%) (after a first AF recurrence, placebo 38.6%)","patients hospitalized for worsening heart failure (including pulmonary edema or dyspnea of cardiac origin) (after first AF/AFL recurrence, placebo 5.0%) [%]","patients hospitalized for AF (after first AF/AFL recurrence, placebo 21.2%) [%]","total time spent in hospital (all patients with a first AF/AFL recurrence, placebo 1789 nights, P < 0.01) [nights]","percentage of hospitalization time spent in intensive care units (compared with the placebo group, P = 0.01, Figure 3)","first AF recurrence (percentage of patients with a first AF recurrence, placebo 34.1%) [%]"
CCCCc1oc2ccc(NS(C)(=O)=O)cc2c1C(=O)c1ccc(OCCCN(CCCC)CCCC)cc1 [dronedarone hydrochloride],23,24,47,44,15,23,195,205,0.76,0.77,0.56,0.53,–,–,–,–,–,–,–
"CCCCc1oc2ccc(NS(C)(=O)=O)cc2c1C(=O)c1ccc(OCCCN(CCCC)CCCC)cc1 [dronedarone, 2-n-Butyl-3-[4-(3-di-n-butylaminopropoxy)benzoyl]-5-methylsulphonamidobenzofuran]",–,–,–,–,–,–,–,–,–,–,–,–,205,30.5,3.6,15.8,1273,lower,29.3
